Assay results: publication PMC10415494, “Ga(III) pyridinecarboxylate complexes: potential analogues of the second generation of therapeutic Ga(III) complexes?” (Journal of Biological Inorganic Chemistry, 2023)

Key:
[1] = tested on: Escherichia coli (E. coli) CCM 3988; experiment: Antimicrobial activity, macrodilution method (growth by A590); format: cell-based
Method: (§1) The antimicrobial activities of gallium(III) complexes GaPic, GaDpic, GaChel, GaCldpic, free ligands (HPic, H2Dpic, H2Chel, H2Cldpic) and positive controls (cefoxitin (C), ampicillin (A) and piperacillin (P)) were evaluated by macrodilution method using G^+ bacteria (Firmicutes) Staphylococcus aureus (S. aureus) CCM 3953 (Czech Collection of Microorganisms), G^− bacteria (γ-proteobacteria) Escherichia coli (E. coli) CCM 3988, Pseudomonas aeruginosa (P. aeruginosa) CCM 1959 (Czech Collection of Microorganisms) and the yeast Candida parapsilosis (C. parapsilosis) ATCC 22019 (American type culture collection). Cultures of bacteria (in Mueller–Hinton broth, MHB) and yeasts (in Sabouraud’s growth medium, SB) were incubated under shaking (250 rpm) at 37 °C. The growth of bacteria and yeasts was evaluated by measuring the absorbance of the growing cultures (A590) until the cultures reached the stationary growth phase. The effects of gallium(III) complexes on the growth of filamentous fungi Rhizopus oryzae (R. oryzae) CCM F-8284, Alternaria alternata (A. alternata) CCM F-128 and Microsporum gypseum (M. gypseum) CCM F-8342 (Czech Collection of Microorganisms) were observed by macrodilution method on solidified potato-dextrose growth medium (PDA). During culturing, the diameters of growing fungal colonies were measured at regular intervals. Briefly, the antimicrobial activity (bacteria and yeasts) gallium(III) complexes/ ligands were added to the microbial culture at the beginning of the cultivation-to the lag phase. Pure gallium(III) complexes/ligands were dissolved in DMSO. The final concentration of DMSO never exceeded 1.0 vol. % neither in control nor treated samples. Concentration of gallium(III) complexes used in experimental work for evaluation of antimicrobial activity was used in the range of 0.05–2 mM, for the free ligands in the range of 0.5–2.0 mM in all experiments. […] The IC50 values were evaluated from toxicity curves. All the obtained results of antimicrobial activity were compared to the activity of Ga(NO3)3.

[2] = tested on: Staphylococcus aureus (S. aureus) CCM 3953; experiment: as above; format: cell-based; details: Bacteria; MHB, 37 °C; DMSO max 1.0 vol. %; read-out: IC50 S. aureus
Method: as §1

[3] = tested on: Pseudomonas aeruginosa (P. aeruginosa) CCM 1959; experiment: as above; format: cell-based
Method: as §1

[4] = tested on: HCT116 (human colorectal carcinoma); experiment: MTS antiproliferative assay
Method: (§2) Cell culture the cell lines A2058 (human metastatic melanoma), BLM (human metastatic melanoma), HCT116 (human colorectal carcinoma), HeLa (human cervical adenocarcinoma), Jurkat (human leukaemic T cell lymphoma). […] Cells were maintained in standard conditions with an atmosphere containing 5% CO2 at 37 °C.
(§3) The antiproliferative activity of Ga(III) complexes GaPic, GaDpic, GaChel, GaCldpic, free ligands (HPic, H2Dpic, H2Chel, H2Cldpic) and cisplatin (cisPt) were evaluated by colorimetric microculture MTS (3-(4,5-dimethylthiazol-2-yl)-5-(3-carboxymethoxyphenyl)-2-(4-sulfophenyl)-2H tetrazolium) assay (Promega, Madison, WI, USA). Cancer and non-cancer cells were seeded at density 5 × 10^3 cells/well in 96-well polystyrene microplates. Twenty-four hours after cell seeding, different concentrations (1.0—100.0 µM) of the compounds were tested. After 72 h of incubation, 10 µL of MTS was added to each well. After an additional 2 h, cell proliferation was evaluated by measuring of absorbance at wavelength 490 nm using the automated Cytation™ 3 Cell Imaging Multi-Mode Reader (Biotek, Winooski, VT, USA). The absorbance of control wells was taken as 100%, and the results were expressed as a percent of untreated control. IC50 values were calculated from MTS analyses.

[5] = tested on: Jurkat (human leukaemic T cell lymphoma); experiment: MTS antiproliferative assay
Method: as §2, §3

[6] = tested on: PaTu 8902 (human pancreatic adenocarcinoma); experiment: MTS antiproliferative assay
Method: as §2, §3

[7] = tested on: HeLa (human cervical adenocarcinoma); experiment: MTS antiproliferative assay
Method: as §2, §3

[8] = tested on: MDA-MB-231 (human mammary gland adenocarcinoma); experiment: MTS antiproliferative assay
Method: as §2, §3

[9] = tested on: A2058 (human metastatic melanoma); experiment: MTS antiproliferative assay
Method: as §2, §3

Solubility (qualitative) = format: physicochemical
[10] = Complex stability in biological testing medium by time-dependent 1H NMR; format: physicochemical; details: 300 K, over 96 h
Method: Nuclear magnetic resonance (NMR) data were collected on a Varian VNMRS 600 spectrometer operating at 599.87 MHz for ^1H. The concentration of all samples was approximately 3 mg/0.6 mL of 1% DMSO-d6/D2O. For comparison, the spectra of pure acids were also measured, while the pH of the solution of acids was adjusted to the same value as the solution of the complexes. The chemical shifts were referenced to the TSP (3-(trimethylsilyl)propionic-2,2,3,3-d4 acid sodium salt) peak (^1H NMR 0.00 ppm). The NMR data were recorded at 300 K, with chemical shifts δ reported in parts per million and coupling constants J in Hertz. All data were analysed using MestReNova 12.0.0 (2017) software. The stability in 1% DMSO-d6/D2O was determined for all samples. […]

[11] = tested on: Rhizopus oryzae (R. oryzae) CCM F-8284; experiment: Growth of filamentous fungi, macrodilution method on solidified PDA (colony diameter); format: cell-based; details: solidified potato-dextrose growth medium; read-out: IC50 R. oryzae
Method: as §1

[12] = tested on: Alternaria alternata (A. alternata) CCM F-128; experiment: as above; format: cell-based; details: Filamentous fungi; solidified potato-dextrose growth medium; read-out: IC50 A. alternata
Method: as §1

[13] = tested on: Microsporum gypseum (M. gypseum) CCM F-8342; experiment: as above; format: cell-based; details: Filamentous fungi; solidified potato-dextrose growth medium; read-out: IC50 M. gypseum
Method: as §1

[14] = tested on: Candida parapsilosis (C. parapsilosis) ATCC 22019; experiment: Antimicrobial activity, macrodilution method (yeast, growth by A590); format: cell-based; details: Yeast; Sabouraud's growth medium, 37 °C; read-out: IC50 C. parapsilosis
Method: as §1

[15] = tested on: human dermal fibroblasts (HDF); experiment: in vitro
Method: as §2, §3

[16] = cited from earlier work
[17] = set-up: method as in doi:10.1002/hlca.19600430611; details: cited from earlier work

Question: For `O.O.O=C([O-])c1cc(Cl)cc(C(=O)[O-])n1.O=C([O-])c1cc(Cl)cc(C(=O)[O-])n1.[Ga+3].[Ga+3].[OH-].[OH-]` [GaCldpic, [Ga(Cldpic)(H2O)(OH)]2], which IC50 ([1]; Bacteria, MHB, 37 °C, DMSO max 1.0 vol. %, read-out: IC50 E. coli) is on record?
Answer: > 2000 µM

Question: What about the “partial inhibition of E. coli growth” value ([1]; concentration not given) of the same compound?
Answer: 30%

Question: And the IC50 [2]?
Answer: > 2000 µM

Question: And the IC50 ([3]; Bacteria, MHB, 37 °C, DMSO max 1.0 vol. %, read-out: IC50 P. aeruginosa)?
Answer: 50 µM

Question: What about the “MIC100 (MIC) P. aeruginosa” value ([3]; growth fully inhibited (100%)) of the same compound?
Answer: 500 µM

Question: And the IC50 [4]?
Answer: 404 ± 47.7 µM

Question: And the IC50 [5]?
Answer: 405 ± 87 µM

Question: And the IC50 [6]?
Answer: 437 ± 22.6 µM

Question: And the IC50 [7]?
Answer: 447 ± 134 µM

Question: And the IC50 [8]?
Answer: 271 ± 68.3 µM

Question: And the IC50 [9]?
Answer: 294 ± 57.5 µM

Question: And the solubility in ethanol (Solubility (qualitative))?
Answer: slightly soluble

Question: What about the “stability in 1% DMSO-d6/D2O solution” value [10] of the same compound?
Answer: stable

Question: And the IC50 [11]?
Answer: > 2000 µM

Question: What about the IC50 [12] of the same compound?
Answer: > 2000 µM

Question: What about the IC50 [13] of the same compound?
Answer: > 2000 µM

Question: What about the IC50 [14] of the same compound?
Answer: > 2000 µM

Question: What about the IC50 [15] of the same compound?
Answer: 447 ± 27.6 µM

Question: For `O=C(O)c1cccnc1` [nicotinic, nicotinic acid], which “dissociation constant pK2” value [16] is on record?
Answer: 4.66

Question: Which “stability constant logβ021” value [17] does the source give for Fe(Dpic)2 here?
Answer: 17.13
